For data set [1] the following is noted: sodium salt / reconstituted state-of-the-art solution, cited from earlier work.
For data set [2] the following is noted: cited from earlier work.
A short description of data set [3]: pH and appearance of ganciclovir solutions. The data set is classed as physicochemical. Conditions: glucose solution, formulation tests. An excerpt:
The earlier tests were tried with the 9-((1,3-dihydroxypropan-2-iloxy)methyl)-2-amine-1-purin-6(9H)-one molecule used for preparing the lyophilized product.
Stabilizing the molecule in this pH, allowed lowering hazards during manipulation, once the previous solution was too much alkaline (pH=11), and was too much irritating after its reconstitution being not possible to be in contact with the skin, mucous membranes and eyes. Using appropriate glasses and gloves were necessary when manipulating this substance.
Yes, but can cause irritation in the site of the injection due the elevate pH of the injectable solution (pH˜11). It also can be done by subcutaneous administration, but with the same local irritation risk.
Because the resulting solution is strongly alkaline (pH=11) and irritating after its reconstitution, one must avoid the contact with the skin, mucous membranes and the eyes. Using glasses and gloves are necessary when manipulating it.

Data set [4] deals with cytomegalovirus. As to conditions: drug derived from acyclovir, U.S. Pat. No. 4,355,032; cited from earlier work.

Counter-ions that a name gives are not always drawn. Like-named read-outs stand apart in the source and are kept apart here.

Turning to `Nc1nc(O)c2ncn(COC(CO)CO)c2n1` [Ganciclovir sodium salt, 9-((1,3-dihydroxypropan-2-iloxy)methyl)-2-amine-1H-purin-6(9H)-one sodium salt], the pH of solution in data set [1] (listed as sodium Ganciclovir, sodium salt) was 11; in data set [1] (sodium salt) it was “about 11”. In addition, the “physically and chemically stable (time)” value in data set [2] (reconstituted with sterile water for injection, diluted with sodium chloride 0.9% in PVC bags, refrigeration at 5° C.) is 14 days.
As to `Nc1nc2c(ncn2COC(CO)CO)c(=O)[nH]1` [Ganciclovir, 9-((1,3-dihydroxypropan-2-iloxy)methyl)-2-amine-1H-purin-6(9H)-one], the pH of solution in data set [1] was 11. Besides, in data set [2] (room temperature, reconstituted inside its own vial), the “Stability (time)” value is 12 h. The appearance of solution result in data set [3] is “yellowish and oxidized solution”. In addition, the “activity against cytomegalovirus, times greater” value in data set [4] is recorded as 100 times.

These data come from patent publication US20070105879A1 (HALEX ISTAR INDUSTRIA FARMACEUTICA LTDA., priority 2003, published 2007).
